Assay results as given in patent publication US10183015B2, “Heterocyclic compounds and methods of use” (Medivation Technologies LLC, priority 2015, dated 2019).
Where “and” joins values, the source holds several entries; their conditions need not be identical. Identical values can stand only once.

Assays:
INSIG1 = experiment: Short-term Paigen-diet NASH mouse model: hepatic INSIG1 gene expression (RT-qPCR); assay type: in vivo; conditions: liver, 21 days; for DDct: INSIG1 Dct relative to vehicle mean; for Dct: INSIG1 minus 18S; for 2DDct: INSIG1 relative expression to vehicle group, normalized to 18S; for INSIG1: raw RT-qPCR value
Protocol: (§1) To investigate whether Compound #37 prevents the development of pathology associated with NASH and steatosis in an acute exploratory disease model, a study was conducted using a diet-induced acute liver steatosis model in mice. As described below, in this study, C57BL/6J mice were initiated on the Paigen diet and simultaneously treated with Compound #37 (5, 20, and 40 mg/kg/day) or vehicle control (20% HPβCD 10 mL/kg/day) by oral gavage for 21 days.
(§2) After acclimation, 8-week old male C57Bl/6J mice (Charles River) weighing about 25 g were randomized in 4 groups according their body weight and treated once daily around noon by oral gavage with vehicle, or Compound #37 at various for 21 days as follows: Group 1: vehicle-20% (2-hydroxypropyl)-β-cyclodextrin (HP-β-CD) (n=10); Group 2: Compound #37, 5 mg/kg (n=10) Group 3: Compound #37, 20 mg/kg (n=10) Group 4: Compound #37, 40 mg/kg (n=10). During the treatment period, body weight and food intake (measured over 24h) were measured 3 times per week and once a week, respectively. During the acclimation, all mice were fed a standard diet (Special Diets Services RM1 (E), product no. 801492) and tap water ad libitum. After the acclimation period, mice were fed until the end of the experiment with a 60% high fat Paigen diet (60 kcal % fat, 1.25% cholesterol, and 0.5% cholate; D11061901, Research Diet) and tap water ad libitum.
(§3) Gene expression analysis. Hepatic expression levels of genes involved in lipid metabolism (FAS, SREBP1, ACC1, SCD1), cholesterol metabolism (HMG-CoAR, LDLR), SREBP proteolysis (SCAP, INSIG1), ER stress (PERK), oxidative stress (NRF2), inflammation (MCP-1), and fibrosis (collagen 1α1) were quantified by RTqPCR. Expression level was normalized to 18S gene expression and relative expression to vehicle group was calculated with the […] method.

NRF2 = experiment: Short-term Paigen-diet NASH mouse model: hepatic NRF2 gene expression (RT-qPCR); assay type: in vivo; set-up: key to ER and oxidative stress gene expression NRF2: Dct: Ct of gene minus Ct of 18S reference; key to ER and oxidative stress gene expression NRF2: 2DDct: expression relative to vehicle group, normalized to 18S (2^-ΔΔCt); conditions: 21 days
Protocol: as §1
as §2, with “([…])” for “(n=10) Group 3: Compound #37, 20 mg/kg (n=10)”
as §3

[1] = Compound #37 5 mg/kg, group mean, n=10
[2] = Compound #37 5 mg/kg, individual animals, 5 mg/kg
[3] = Compound #37 20 mg/kg, group mean, n=6
[4] = Compound #37 20 mg/kg, individual animals, 20 mg/kg

With `CC(C)Cc1cc(-c2nc(-c3ccc(NS(=O)(=O)C(F)(F)F)cc3Cl)cs2)ccn1` [Compound 37, N-(3-chloro-4-(2-(2-isobutylpyridin-4-yl)thiazol-4-yl)phenyl)-1,1,1-trifluoromethanesulfonamide] the DDct (INSIG1; [1]) was 0.28, the DDct (INSIG1; [2]) was −0.58 and 0.21 and 0.48 and −0.03 and 0.34 and 1.45 and 0.09 and 0.52 and 0.32 and 0.05 and the DDct (INSIG1; [3]) was 0.15. The DDct (INSIG1; [4]) was 0.5 and 0.75 and 0.51 and −0.67 and 0.62 and −0.76, the Dct (INSIG1; [1]) was 12 and the Dct (INSIG1; [2]) was 11.1 and 11.89 and 12.16 and 11.65 and 12.02 and 13.13 and 11.77 and 12.2 and 12 and 11.73. For the same molecule, the Dct (INSIG1; [3]) was 11.8, the Dct (INSIG1; [4]) was 12.18 and 12.43 and 12.19 and 11.01 and 12.3 and 10.92 and the 2DDct (INSIG1; [1]) was 0.87. For the same molecule, the 2DDct (INSIG1; [2]) was 1.5 and 0.87 and 0.72 and 1.02 and 0.79 and 0.37 and 0.94 and 0.7 and 0.8 and 0.97, the 2DDct (INSIG1; [3]) was 0.99 and the 2DDct (INSIG1; [4]) was 0.71 and 0.6 and 0.7 and 1.6 and 0.65 and 1.7. The INSIG1 (INSIG1; [1]) was 24.2, the INSIG1 (INSIG1; [2]) was 24.56 and 25 (2×) and 23.77 and 24.05 and 26.48 and 23.37 and 23.99 and 23.14 and 22.85 and the INSIG1 (INSIG1; [3]) was 24. For the same molecule, the INSIG1 (INSIG1; [4]) was 25.09 and 24.72 and 24.39 and 24.04 and 23.79 and 22.18, the “ER and oxidative stress gene expression NRF2: 2DDct” value (NRF2; 5 mg/kg, group mean, n 10) was 0.76 and the “ER and oxidative stress gene expression NRF2: 18S” value (NRF2; 5 mg/kg, group mean, n 10) was 12.3. For the same molecule, the “ER and oxidative stress gene expression NRF2: DDct” value (NRF2; 5 mg/kg, group mean, n 10) was 0.57, the “ER and oxidative stress gene expression NRF2: Dct” value (NRF2; 5 mg/kg, group mean, n 10) was 11.5 and the “ER and oxidative stress gene expression NRF2: NRF2” value (NRF2; 5 mg/kg, group mean, n 10) was 23.8. The “ER and oxidative stress gene expression NRF2: 2DDct” value (NRF2; 5 mg/kg, individual animals) was 0.76 and 0.49 and 0.57 and 1.91 and 0.32 and 0.4 and 0.82 and 1.02 and 0.67 and 0.68, the “ER and oxidative stress gene expression NRF2: 18S” value (NRF2; 5 mg/kg, individual animals) was 13.46 and 13.11 and 11.61 and 13.35 (2×) and 12.03 and 11.6 and 11.79 and 11.14 and 11.12 and the “ER and oxidative stress gene expression NRF2: DDct” value (NRF2; 5 mg/kg, individual animals) was 0.4 and 1.02 and 0.81 and −0.93 and 1.66 and 1.32 and 0.29 and −0.03 and 0.58 and 0.56. For the same molecule, the “ER and oxidative stress gene expression NRF2: Dct” value (NRF2; 5 mg/kg, individual animals) was 11.34 and 11.96 and 11.75 and 10.01 and 12.6 and 12.26 and 11.23 and 10.91 and 11.52 and 11.5, the “ER and oxidative stress gene expression NRF2: NRF2” value (NRF2; 5 mg/kg, individual animals) was 24.8 and 25.07 and 23.36 (2×) and 24.63 and 25.61 and 22.83 and 22.7 and 22.66 and 22.62 and the “ER and oxidative stress gene expression NRF2: 2DDct” value (NRF2; 20 mg/kg, group mean, n 6) was 1.08. For the same molecule, the “ER and oxidative stress gene expression NRF2: 18S” value (NRF2; 20 mg/kg, group mean, n 6) was 12.2, the “ER and oxidative stress gene expression NRF2: DDct” value (NRF2; 20 mg/kg, group mean, n 6) was 0.03 and the “ER and oxidative stress gene expression NRF2: Dct” value (NRF2; 20 mg/kg, group mean, n 6) was 11. The “ER and oxidative stress gene expression NRF2: NRF2” value (NRF2; 20 mg/kg, group mean, n 6) was 23.2, the “ER and oxidative stress gene expression NRF2: 2DDct” value (NRF2; 20 mg/kg, individual animals) was 0.76 (2×) and 0.91 and 2.23 and 0.65 and 1.13 and the “ER and oxidative stress gene expression NRF2: 18S” value (NRF2; 20 mg/kg, individual animals) was 12.91 and 12.29 and 12.2 and 13.03 and 11.49 and 11.26. For the same molecule, the “ER and oxidative stress gene expression NRF2: DDct” value (NRF2; 20 mg/kg, individual animals) was 0.39 and 0.4 and 0.13 and −1.16 and 0.62 and −0.18, the “ER and oxidative stress gene expression NRF2: Dct” value (NRF2; 20 mg/kg, individual animals) was 11.33 and 11.34 and 11.07 and 9.78 and 11.56 and 10.76 and the “ER and oxidative stress gene expression NRF2: NRF2” value (NRF2; 20 mg/kg, individual animals) was 24.24 and 23.63 and 23.27 and 22.81 and 23.05 and 22.02.
